Literature values, collected in patent US10398653B2, “Solid preparations containing tofogliflozin and process of producing the same” (CHUGAI SEIYAKU KABUSHIKI KAISHA, priority 2013, dated 2019).

Molecular target: T1, SGLT2 (Homo sapiens, UniProt P31639)
T1 sequence (P31639 1-672): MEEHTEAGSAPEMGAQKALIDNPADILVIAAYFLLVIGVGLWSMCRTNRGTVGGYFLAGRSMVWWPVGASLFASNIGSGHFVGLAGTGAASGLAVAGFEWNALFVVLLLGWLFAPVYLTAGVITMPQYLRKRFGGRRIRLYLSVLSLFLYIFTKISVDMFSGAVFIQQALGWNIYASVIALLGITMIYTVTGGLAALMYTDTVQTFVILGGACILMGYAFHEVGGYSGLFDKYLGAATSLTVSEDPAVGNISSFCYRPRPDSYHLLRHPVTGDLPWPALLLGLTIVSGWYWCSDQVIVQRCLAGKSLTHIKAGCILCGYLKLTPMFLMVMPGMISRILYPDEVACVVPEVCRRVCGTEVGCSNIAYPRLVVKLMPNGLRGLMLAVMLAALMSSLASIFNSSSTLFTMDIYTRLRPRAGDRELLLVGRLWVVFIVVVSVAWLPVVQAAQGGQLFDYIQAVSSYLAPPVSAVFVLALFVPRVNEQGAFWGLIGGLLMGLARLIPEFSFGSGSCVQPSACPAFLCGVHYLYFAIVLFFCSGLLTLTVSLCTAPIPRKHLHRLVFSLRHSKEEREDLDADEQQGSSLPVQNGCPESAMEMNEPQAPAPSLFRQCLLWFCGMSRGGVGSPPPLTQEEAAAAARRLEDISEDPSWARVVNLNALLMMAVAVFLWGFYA
Conditions: as stated in Patent Document 1

## CCc1ccc(Cc2ccc3c(c2)[C@]2(OC3)O[C@H](CO)[C@@H](O)[C@H](O)[C@H]2O)cc1 [tofogliflozin, 1,1-Anhydro-1-C-[5-(4-ethylphenyl)methyl-2-(hydroxymethyl)phenyl]-β-D-glucopyranose]
  Inhibitory activity against SGLT2: excellent inhibitory activity
